Measured values: patent US20230052528A1 (priority 2019, published 2023)
Read-outs that look alike come from different tables or passages of the source.

Legend:
[1] = molecular target: T1, wildtype Taspase1 (split Tasp1 WT) (Homo sapiens, UniProt Q9H6P5); assay: biochemical
T1 sequence (Q9H6P5 1-233): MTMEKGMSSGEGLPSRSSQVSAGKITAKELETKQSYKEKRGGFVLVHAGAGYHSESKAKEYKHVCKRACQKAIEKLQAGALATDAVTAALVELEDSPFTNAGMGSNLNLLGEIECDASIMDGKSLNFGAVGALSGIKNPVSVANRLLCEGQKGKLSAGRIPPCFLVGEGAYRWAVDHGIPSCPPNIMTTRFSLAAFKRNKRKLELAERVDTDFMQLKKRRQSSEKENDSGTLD
T1 sequence (Q9H6P5 234-420): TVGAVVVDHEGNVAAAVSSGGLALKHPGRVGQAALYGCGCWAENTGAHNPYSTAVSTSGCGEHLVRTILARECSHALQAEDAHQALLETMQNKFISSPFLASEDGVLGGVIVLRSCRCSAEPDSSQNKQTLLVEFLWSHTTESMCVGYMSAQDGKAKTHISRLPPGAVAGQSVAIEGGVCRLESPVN
Method: (§1) FIGS. 4A-4B. […] “Taspase1 IC50 (FAM)”=inhibition of cleavage of a Taspase1 peptide substrate; detected by fluorescence resonance energy transfer (FRET). “6.6 mM GSH added”=same assay, in the presence of 6.6 mM glutathione (GSH). […] “Ki”=Ki determined by kinact/Ki measurements, using the Taspase1/FRET-peptide assay described above.
To extend that assay, compounds are also tested in the presence of 6.6 mM GSH as a non-specific, but physiologically relevant, thiol competitor.

[2] = molecular target: T2, Taspase1 (Homo sapiens, UniProt Q9H6P5); assay: biochemical
T2 sequence (Q9H6P5 1-233): T1 sequence (Q9H6P5 1-233)
T2 sequence (Q9H6P5 234-420): T1 sequence (Q9H6P5 234-420)
Method: as §1
Ki is the binding constant that describes the energy of association for the non-covalent portion of the molecule. Kinact is the rate at which the covalent bond is formed between the small molecule and the protein.

[3] = system: PC9 lung cancer cells; assay: Cell viability (CellTiter-Glo), PC9; type: cell-based
[4] = system: H1975 lung cancer cells; assay: Cell viability, H1975; type: cell-based; conditions: Homo sapiens
[5] = system: MDA-MB-231 triple-negative breast cancer cells; assay: Cell viability, MDA-MB-231; type: cell-based; conditions: Homo sapiens
[6] = system: H522 lung cancer cells; assay: Cell viability, H522; type: cell-based; conditions: Homo sapiens
[7] = system: HSAEC 1-KT cells; assay: Cell viability, HSAEC 1-KT; type: cell-based; conditions: read-out: IC50 (μM) HSAEC 1-KT (Lung)
[8] = system: PC3 prostate cells; assay: Cell viability, PC3; type: cell-based; conditions: read-out: IC50 (μM) PC3 (Prostate)
[9] = system: PC9, H1975, H522, HSAEC 1-KT, MDA-MB-231 and PC3 cell lines; assay: Cell viability, statements over all cell lines studied; type: cell-based; conditions: for EC50: read-out: EC50
[10] = molecular target: T3, split Tasp1 WT (Homo sapiens, UniProt Q9H6P5); assay: LC-MS tethering dose-response (DR50) assay; type: binding; conditions: relative to the other shouldered piperazine analogs
T3 construct: residues 1-233 (alpha domain) in Multiple Cloning Site-1 (MCS-1); residues 234-420 (beta domain) in MCS-2; His6 (TEV-cleavable) (N, cleaved yes); made in house; host or cells: E. coli Rosetta2(DE3)
T3 sequence (Q9H6P5 1-233): T1 sequence (Q9H6P5 1-233)
T3 sequence (Q9H6P5 234-420): T1 sequence (Q9H6P5 234-420)

[11] = Stability of shouldered triazole compound (method not described)
[12] = Biochemical IC50 (nM) +6.6 mM GSH, Table 1, +6.6 mM GSH, 3FAM/QXL520 fluorescent dyes
[13] = Biochemical IC50 (nM) no GSH, Table 1, no GSH, 3FAM/QXL520 fluorescent dyes
[14] = WT IC50 (nM) 6.6 mM GSH, Table 1a, 6.6 mM GSH, average ± std dev
[15] = WT IC50 (nM) No GSH, Table 1a, no GSH, average ± std dev
[16] = read-out: kinact (s^−1), Table 1
[17] = read-out: kinact (s^−1), Table 1a
[18] = Table 2a cytotoxicity, read-out: IC50 (μM) PC9 (Lung)
[19] = NCI-H1975, read-out: IC50 (μM) H1975 (Lung), Table 2a cytotoxicity
[20] = MDA-MB-231, Table 2a cytotoxicity, read-out: IC50 (μM) MDA-MB-231 (Breast)
[21] = NCI-H522, Table 2a cytotoxicity, read-out: IC50 (μM) H522 (Lung)
[22] = NCI-H1975, read-out: H1975 [Lung] (uM), Table 2
[23] = MDA-MB-231, Table 2, read-out: MDA-MB-231 [Breast]

| Compound | IC50 [1, 12] [nM] | IC50 [1, 13] [nM] | IC50 ([1]; IC50 vs split Tasp1 WT) [nM] | IC50 [1, 14] [nM] | IC50 [1, 15] [nM] | Ki ([2]; Ki (uM), Table 1) [µM] | Ki ([2]; Ki (μM), Table 1a) [µM] | kinact [2, 16] [s⁻¹] | kinact [2, 17] [s⁻¹] | IC50 [3, 18] [µM] | IC50 [4, 19] [µM] | IC50 [5, 20] [µM] | further results |
| --- | --- | --- | --- | --- | --- | --- | --- | --- | --- | --- | --- | --- | --- |
| C=CS(=O)(=O)N1CCN(Cc2ccc(OC(F)(F)F)c(F)c2)[C@@H](CCO)C1 [SMDC069, 2-[(2S)-4-(ethenesulfonyl)-1-{[3-fluoro-4-(trifluoromethoxy)phenyl]methyl}piperazin-2-yl]ethan-1-ol] | 273 | 17 | ~20 | 273 ± 68 | 25 ± 16 | 23.2 | 33 | 0.082 | 0.112 | 3.9 ± 2.6 | 3.6 ± 2.2 | 6 ± 4.1 | IC50 ([3]; 72 h, FIG. 3B, read-out: IC50, reduced viability of EGFR mutant PC9 lung cancer cells): ~2 µM; IC50 [6, 21]: 2 µM; IC50 ([7]; Table 2a cytotoxicity): 3.2 µM; IC50 ([8]; Table 2a cytotoxicity): 3.4 µM; EC50 [9]: 2 to 6 µM |
| C=CS(=O)(=O)N1CCN(Cc2ccc(OC(F)(F)F)c(F)c2)[C@@H](COCc2cn[nH]c2)C1 [SMDC203, (R)-2-(((1H-pyrazol-4-yl)methoxy)methyl)-1-(3-fluoro-4-(trifluoromethoxy)benzyl)-4-(vinylsulfonyl)piperazine] | 237 | 22 | ~20 | 237 ± 40 | 32 ± 18 | 27.7 | 45 | 0.048 | 0.061 | 10.3 ± 0.3 | 9.6 ± 1.5 | 15.5 ± 2.5 | IC50 ([3]; Table 2, read-out: PC9 [Lung]): 10.5 µM; IC50 [4, 22]: 8.1 µM; IC50 [5, 23]: ~13 µM; IC50 ([8]; Table 2a cytotoxicity): 15 µM; EC50 [9]: 9.6 to 15.5 µM |
| CN(C)CCSSCCCC(=O)NCc1ccc(OC(F)(F)F)cc1 [SMDC208, 4-{[2-(dimethylamino)ethyl]disulfanyl}-N-{[4-(trifluoromethoxy)phenyl]methyl}butanamide] | – | – | 30300 | – | – | – | – | – | – | – | – | – | – |
| C=CS(=O)(=O)N1CCN(Cc2ccc(OC(F)(F)F)c(F)c2)[C@@H](CN2CCS(=O)(=O)CC2)C1 [SMDC275, 4-{[(2S)-4-(ethenesulfonyl)-1-{[3-fluoro-4-(trifluoromethoxy)phenyl]methyl}piperazin-2-yl]methyl}-1λ^6-thiomorpholine-1,1-dione] | 420 | 27 | ~20 | 420 ± 80 | 38 ± 16 | – | – | – | – | 3.5 | 2.6 | 4.3 | binding affinity in the tethering assay [10]: enhanced binding affinity; IC50 ([3]; Table 2, read-out: PC9 [Lung]): 3.5 µM; IC50 [4, 22]: 2.6 µM; IC50 [5, 23]: 4.3 µM |
| C=CS(=O)(=O)N1CCN(Cc2ccc(OC(F)(F)F)c(F)c2)[C@@H](COCc2c[nH]nn2)C1 [SMDC556, (R)-2-(((1H-1,2,3-triazol-4-yl)methoxy)methyl)-1-(3-fluoro-4-(trifluoromethoxy)benzyl)-4-(vinylsulfonyl)piperazine] | – | – | – | – | – | – | – | – | – | – | – | – | stability [11]: too unstable |
| CN(C)CCSSCCCNC(=O)Cc1ccc(OC(F)(F)F)cc1 [SMDC673, N-(3-{[2-(Dimethylamino)ethyl]disulfanyl}propyl)-2-[4-(trifluoromethoxy)phenyl]acetamide] | – | – | 11300 | – | – | – | – | – | – | – | – | – | – |
| C=CS(=O)(=O)N1CCN(Cc2ccc(OC(F)(F)F)c(F)c2)CC1 [SMDC689, 1-(Ethenesulfonyl)-4-{[3-fluoro-4-(trifluoromethoxy)phenyl]methyl}piperazine] | 661 | 51 | 51 | 661 ± 152 | 51 ± 47 | 32.9 | 45.8 ± 13.4 | 0.028 | 0.031 ± 0.003 | 11 ± 1 | 17.6 ± 8.3 | 16.5 ± 1.5 | IC50 [6, 21]: 20 ± 10 µM; IC50 ([7]; Table 2a cytotoxicity): 13 µM; IC50 ([8]; Table 2a cytotoxicity): 15 µM |
| C=CS(=O)(=O)NCCCc1ccc(OC(F)(F)F)cc1 [SMDC714] | – | – | 16000 | – | – | – | – | – | – | – | – | – | – |
| C=CS(=O)(=O)N1CCN(Cc2cccc(OC(F)(F)F)c2)CC1 [SMDC723, 1-(3-(Trifluoromethoxy)benzyl)-4-(vinylsulfonyl)piperazine] | – | – | 40000 | – | – | – | – | – | – | – | 27.8 ± 5.6 | – | IC50 ([3]; Table 2, read-out: PC9 [Lung]): ~22 µM; IC50 ([3]; read-out: IC50 (μM) PC9 (Lung), Table 2a cytotoxicity): 25.8 ± 2.7 µM; IC50 [4, 22]: ~20 µM; IC50 [5, 23]: ~37 µM; IC50 ([5]; MDA-MB-231, read-out: IC50 (μM) MDA-MB-231 (Breast), Table 2a cytotoxicity): 37 µM; IC50 ([6]; NCI-H522, read-out: IC50 (μM) H522 (Lung)): 24.4 ± 1.7 µM; IC50 [7]: ~32 µM; IC50 [8]: ~28 µM; IC50 ([9]; all cell lines studied, read-out: IC50 against cell lines studied): > 20 µM |
| C#CCOC[C@H]1CN(S(=O)(=O)C=C)CCN1Cc1ccc(OC(F)(F)F)c(F)c1 [SMDC883, (2R)-4-(ethenesulfonyl)-1-{[3-fluoro-4-(trifluoromethoxy)phenyl]methyl}-2-[(prop-2-yn-1-yloxy)methyl]piperazine] | 340 | 26 | ~20 | 340 ± 30 | 26 ± 8 | 64.3 | 87 | 0.037 | 0.045 | – | – | – | – |
| C=CS(=O)(=O)N1CCN(Cc2ccc(OC(F)(F)F)cc2)CC1 [SMDC967, 1-(ethenesulfonyl)-4-{[4-(trifluoromethoxy)phenyl]methyl}piperazine] | – | 168 | 114 | – | 168 ± 54 | 6.02 | 30 | 0.011 | 0.004 | – | – | – | – |
